Patent US20220098237A1, “COMPOUND, SYNTHESIS INTERMEDIATE, USE, PHARMACEUTICAL COMPOSITION AND NEUROMODULATORY THERAPEUTIC METHOD” (Remer Consultores Assessoria Empresarial Ltda, priority 2017, published 2022)
Values joined by “and” are separate entries in the source; they are usually repeats but may differ in a detail not shown here. Identical values can stand only once. “Also recorded” adds a separate entry of the source. Peptide text beside a SMILES is read from it.

Columns and labels:
[1] = Stability tests under extreme conditions (freezing 24 hours; heating at 100° C. for 10 minutes), HPLC; type: physicochemical
Text: In the vertical axis the area of the HPLC peak is shown. […] Statistical significance data are also shown, the asterisks indicating: (*) P<0.05 vs Control (***) P<0.005 vs Control; (****) P<0.0001 vs Control.

[2] = tested on: experimental autoimmune encephalomyelitis (EAE); assay: EAE model of Multiple Sclerosis, MOG induction, Endopeptidase 24.15 knockout mice; type: in vivo; conditions: 24.15 knock out mice, FIG. 25
Text: In this embodiment, transgenic mice knockout of the Endopeptidase 24.15 gene were challenged with MOG (Myelin Oligodendrocyte Glycoprotein), with administration of the compound of the invention SEQ ID No. 1 or saline as a control. After the introduction of the disease, a daily evaluation of the symptoms was made, according to Table 11 below.

[3] = tested on: pilocarpine model; assay: Pilocarpine model, oral pre-treatment (salivation, first signal, seizure, death/survival); type: in vivo, Mus musculus; parameters: time of occurrence of the first seizure: unit not given here
Experimental: In some examples, the neuromodulatory/neuroprotective/anticonvulsive effects of the composition of the invention have been evaluated in vivo by oral administration to animals. The pharmaceutical composition of the invention was administered to mammals (Mus musculus or mouse) with an oral dose of treatment with different embodiments of the compound of the invention, compared to other compounds or to saline control. In these experiments, the test compounds were administered orally 10 minutes prior to (intraperitoneal) administration of pilocarpine. Pilocarpine hydrochloride (320 mg/kg, Merck), dissolved in 0.9% sterile saline, was given intraperitoneally for induction of SE (status epileticus) (Turski et al., 1983). In the Turski model, the neurotoxic effects begin about 15-25 minutes after the injection of Pilo, with the occurrence of motor and limbic seizures, the animals evolving to a state of continuous (clonic) seizures that characterize SE Sanabria and Cavalheiro, 2000).
In this embodiment, the anticonvulsive effect of the composition of the invention prepared according to Example 2 was evaluated by prior administration of the inventive composition and subsequent administration of pilocarpine to animals. FIG. 4 presents the results of the pilocarpine model, indicating the time for the first salivation with the administration of control, cannabidiol (30 mg/kg), the compound of the invention R1-N-AA1-K-AA2-R2, in which embodiment is the tetrapeptide of SEQ ID No. 1 (500 μg/kg).
In this embodiment, the neuromodulatory effect of the composition of the invention prepared according to Example 2 was evaluated by prior administration of the inventive composition and subsequent administration of pilocarpine to animals. Other test compounds were also evaluated as described below. Administration of pilocarpine leads to severe brain injury, neurotoxicity and usually culminates in the death of the animals. This substance was used in the experiments described below but its harmful neuronal/encephalic effects were inhibited by the prior administration of the composition of the present invention: the vast majority of the animals subjected to these experiments had no symptoms related to brain lesions and survived without apparent damage, in contrast to groups of animals treated with other known substances.
The composition of the invention was prepared according to Example 2 with due concentration correction, for comparison of the effects of SEQ ID No. 1, SEQ ID No. 7 and NFK, such compounds having been previously administered to the animal groups.
In this embodiment, the anticonvulsant effect of different embodiments of the compound of the invention with the structure represented by SEQ ID No. 1, SEQ ID No. 7, NFK, FKF, FKL, as well as the NF, FK, KF and KL dipeptides were evaluated in the pilocarpine model.

[4] = tested on: CB1 receptor; assay: Screening with anti-CB1 antibodies sensitive to activation/conformational changes, ELISA on Striatum membranes; type: binding; conditions: ligands 1 μM; Assay 1-5
Experimental: Antibodies sensitive to CB1 receptor activation were generated and characterized by their specificities. For screening compounds, Striatum membranes (5 μg per well) were plated on NUNC-Immuno 96-well plates (Nalge-Nunc) and dried at room temperature. Membranes were washed with PBS (phosphate buffered saline) and incubated with or without different ligands (1 μM) and the extent of receptor recognition by the antibodies was measured by ELISA. The results of the tests are shown in Table 5, which indicates the % binding to the CB1 receptor in relation to control: […]

[5] = tested on: pain threshold; assay: Pain threshold model, pressure apparatus on right paw; type: in vivo, rats; conditions: for pain threshold, force: oral, 0.5 to 0.25 mg/kg, individual animals
Experimental: The compounds of the present invention have also been tested as analgesics or neuropathic pain modulators. To that end, the compounds PVNFKF, PVNFK, VNFKF, SEQ ID No. 1 were tested in the pain threshold model. The pain threshold was measured using a pressure apparatus (Ugo Basile, Italy), essentially as described (Randall and Selitto, 1957). Briefly, a force of increasing magnitude (16 g/s) was applied to the back of the right paw of rats. When animals react by kicking, the force in grams required to induce this response is the threshold of pain. Antinoniceptive activity was expressed as the increase in pain threshold compared to control animals.
The compounds of the invention were administered orally to the animals at doses of 0.5 to 0.25 mg/kg and saline was used as a control.

[6] = molecular target: T1, human CB1 receptor (Homo sapiens, UniProt P21554); assay: In vitro radioligand binding, [3H] CP 55940, recombinant CHO cells; conditions: radioligand agonist CP55940, read-out: % of inhibition of binding of specific control, Mean value
T1 construct: expressed in transfected cells; host or cells: CHO cells
Experimental: In vitro binding assays were performed using recombinant CHO cells expressing the human CB1 receptor and the [3H]
Results are expressed as the percentage of binding of the specific control according to formula: […]
And the percentual inhibition of binding of specific control obtained in the presence of the compound of the invention is:
IC50 values (concentration that causes half of maximal inhibition of specific control binding) and Hill (nH) coefficients were determined by nonlinear regression of the competition curves generated with the mean values of the replicates using the Hill equation:
Where Y=specific binding, A=asymptotic left of curve, D=asymptotic right of curve, C=compound concentration, C50=IC50 and nH=curve coefficient/slope factor. This analysis was performed using the Hill software validated by comparison with data generated by Sigmaplot 4.0 software. Inhibition constants (Ki) were calculated using the equation of Chen Prusoff:
Where L=concentration of the radioligand in the assay; KD=affinity of the radioligand for the receptor. A graph is used to determine the KD.

[7] = molecular target: T2, human CB2 receptor (Homo sapiens, UniProt P34972); assay: In vitro radioligand binding, [3H] WIN55212-2, recombinant CHO cells; parameters: % of inhibition of binding of specific control, 1st/2nd measurement: unit of the concentration uncertain; conditions: for % of inhibition of binding of specific control, 1st/2nd measurement: radioligand agonist WIN 55212-2
T2 construct: expressed in transfected cells; host or cells: CHO cells
Experimental: In vitro binding assays were performed using recombinant CHO cells expressing human CB2 receptor and [3H]

[8] = FIG. 6, 500 μg/kg before pilocarpine

T2 sequence (P34972 whole entry): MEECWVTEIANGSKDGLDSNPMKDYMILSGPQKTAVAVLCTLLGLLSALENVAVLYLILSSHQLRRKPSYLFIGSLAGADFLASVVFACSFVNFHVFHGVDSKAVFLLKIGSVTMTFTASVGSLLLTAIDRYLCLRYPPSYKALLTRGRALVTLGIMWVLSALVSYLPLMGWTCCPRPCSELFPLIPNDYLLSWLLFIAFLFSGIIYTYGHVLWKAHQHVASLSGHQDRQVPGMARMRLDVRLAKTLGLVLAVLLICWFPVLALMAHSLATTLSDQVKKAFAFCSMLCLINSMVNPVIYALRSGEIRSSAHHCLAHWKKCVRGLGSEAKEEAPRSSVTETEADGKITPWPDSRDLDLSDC
T1 sequence (P21554 whole entry): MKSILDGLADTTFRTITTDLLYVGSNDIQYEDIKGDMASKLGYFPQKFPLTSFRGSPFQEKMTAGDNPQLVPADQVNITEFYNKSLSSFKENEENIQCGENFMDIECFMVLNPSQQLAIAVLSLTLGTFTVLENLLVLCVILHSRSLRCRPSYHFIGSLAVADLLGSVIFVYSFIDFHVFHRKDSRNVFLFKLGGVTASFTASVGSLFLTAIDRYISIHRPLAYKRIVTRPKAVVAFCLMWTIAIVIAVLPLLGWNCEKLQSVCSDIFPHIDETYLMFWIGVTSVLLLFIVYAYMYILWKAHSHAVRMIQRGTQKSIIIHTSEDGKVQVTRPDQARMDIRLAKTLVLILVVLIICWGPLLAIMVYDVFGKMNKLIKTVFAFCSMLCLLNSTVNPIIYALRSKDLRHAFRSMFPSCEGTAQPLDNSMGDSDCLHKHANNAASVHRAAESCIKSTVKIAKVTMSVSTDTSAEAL

NCCCCC(NC(=O)C(Cc1ccccc1)NC(=O)C(N)CC(N)=O)C(=O)NC(Cc1ccccc1)C(=O)O (stereo not shown) [SEQ ID No. 1] (H-NFKF-OH; configuration not given here)
area of the HPLC peak, control ([1]; control sample, n=2): 120
area of the HPLC peak after freezing ([1]; freezing for 24 h): 100
part lost or degraded by freezing ([1]; freezing for 24 h): 16.7%
degradation upon heating (in words) ([1]; heating at 100° C. for 10 minutes): did not suffer statistically significant degradation
clinical symptoms (Clinical Score) [2]: impressive reduction of clinical symptoms
time for first salivation vs control (significance) ([3]; FIG. 4, cannabidiol 30 mg/kg, SEQ ID No. 1 500 μg/kg): does not present statistical significance
number of animals that died [3, 8]: two
remaining animals alive for more than a week [3, 8]: 3 animals
prostration and nasal bleeding ([3]; SEQ ID No. 1 500 μg/kg, cannabidiol 30 mg/kg): no occurrence of prostration or nasal bleeding; also recorded: non-occurrence of prostration or nasal bleeding
time of occurrence of the first salivation ([3]; Table 1, oral, 10 minutes prior to pilocarpine 320 mg/kg i.p., individual animals): 3.2 min and 1.83 min and 1.97 min and 2.73 min and 1.58 min
time of occurrence of the first signal ([3]; Table 2, oral, 10 minutes prior to pilocarpine 320 mg/kg i.p., individual animals): 12.33 min and 8.43 min and 10.23 min and 13.53 min and 9.9 min
time of occurrence of the first seizure ([3]; Table 3, oral, 10 minutes prior to pilocarpine 320 mg/kg i.p., individual animals): 17.88 and 15.17 and 19.95 and 15.18 and 16
time of death occurrence ([3]; Table 4, oral, 10 minutes prior to pilocarpine 320 mg/kg i.p., individual animals): 18.92 min and 20 min and 15.18 min and 10.87 min
% binding to the CB1 receptor in relation to control [4]: 90.27% and 84.41% and 90.19% and 77.88% and 65.39%
pain threshold, force ([5]; After 3 h): 80 grams (2×) and 70 grams (3×) and 75 grams
pain threshold, force ([5]; Immediate): 70 grams and 75 grams (3×) and 80 grams and 60 grams
greater pain threshold compared to PVNFKF ([5]; after 3 h): 50.1%
inhibition at 1 µM ([6]; 1 µM): -74.6%
inhibition at 10 µM ([6]; 10 µM): -9.9%
% of inhibition of binding of specific control, 1st/2nd measurement ([7]; 1 (unit uncertain)): 3.5% and 0.3%
% of inhibition of binding of specific control, 1st/2nd measurement ([7]; 10 (unit uncertain)): 13.1%
modulation in binding of the radioligand (in words) ([7]; conditions tested): did not provide significant modulation
